We go through 66 compounds from PubChem BioAssay AID743450 (Broad Institute, 2014).

Where “and” joins values, the source holds several entries; their conditions need not be identical. Equal values may be shown once. Inconclusive results are not listed. Calls of active or inactive are those of the source. The rule behind the calls is not given here. Some results are limits rather than exact numbers.

The first assay is described as follows: Starved TB CFU, imaging assay, inhibitor dose response, confirmatory stage (AID 743450).
Details: not given
For `CC(C)n1c(NC(=O)c2ccccc2)nc2ccccc21`, the AC90 was 6.68 µM.
Regarding `Cn1c(NC(=O)c2ccccc2)nc2c3nccnc3ccc21`, the AC90 is 1.37 µM.
Take `CN(C(=O)c1ccccc1)c1nc2ccccc2n1C`: the AC90 is > 26 µM (inactive).
Turning to `Cn1c(NC(=O)c2ccc(-c3ccccc3)cc2)nc2ccccc21`, the AC90 is 6.25 µM.
The same measure, in the same setting: in the case of `Cn1c(NC(=O)c2ccccc2C(F)(F)F)nc2ccccc21` it was 7.01 µM; in that of `CCCn1c(NC(=O)c2ccccc2)nc2ccccc21`, 6.02 µM.
In the case of `O=C(Nc1nc2ccccc2n1-c1ccccc1)c1ccccc1`, the AC90 is > 26 µM (inactive).
In the case of `Cn1c(NC(=O)c2ccc(C(C)(C)C)cc2)nc2ccccc21`, the AC90 is 6.68 µM.
On the same count and under the same terms, in the case of `Cn1c(NC(=O)c2ccccc2)nc2c(C#N)cccc21` it was 5.26 µM.
Consider `Cn1c(NC(=O)c2ccc(F)c(F)c2)nc2ccccc21`, for which the AC90 was 19.9 µM.
With `Cn1c(NC(=O)c2ccccc2)nc2cc(Cl)ccc21`, the AC90 is 6.02 µM.
Same read-out and setting: in the case of `O=C(Nc1nc2ccccc2n1Cc1ccccc1)c1ccccc1` it was 6.74 µM; in that of `O=C(Nc1nc2ccccc2n1CCN1CCCCC1)c1ccccc1`, 12.3 µM; in that of `Cn1c(NC(=O)c2ccccc2)nc2cccc(Cl)c21`, 10.2 µM.
Same read-out and setting: in the case of `CN(C)c1cccc(C(=O)Nc2nc3ccccc3n2C)c1` it was 5.34 µM; in that of `O=C(Nc1nc2ccccc2n1C1CC1)c1ccccc1`, 4.84 µM; in that of `CC(C)Oc1ccc(C(=O)Nc2nc3ccccc3n2C)cc1`, 6.98 µM.
The same measure, in the same setting: the value for `COc1ccc(C(=O)Nc2nc3ccccc3n2C)cc1OC` was 11.3 µM.
Consider `Cn1c(NC(=O)c2ccccc2)nc2cc(C#N)ccc21`, for which the AC90 was 7.91 µM.
Still for that read-out and setting: in the case of `Cn1c(NC(=O)c2ccccc2)nc2ccc3ncccc3c21` it was 6.35 µM; in that of `COc1cccc2c1nc(NC(=O)c1ccccc1)n2C`, 3.66 µM.
For `Cn1c(NC(=O)c2ccccc2)nc2c(F)cccc21`, the AC90 was 10.1 µM.
Take `Cn1c(NC(=O)c2ccccc2)nc2cc(F)ccc21`: the AC90 is 4.55 µM.
On the same count and under the same terms, in the case of `Cn1c(NC(=O)c2ccccc2F)nc2ccccc21` it was 4.84 µM.
With `CCn1c(NC(=O)c2ccccc2)nc2ccccc21`, the AC90 is 5.52 µM.
The same measure, in the same setting: in the case of `Cn1c(NC(=O)c2ccccc2)nc2ccc(F)cc21` it was 4.72 µM; in that of `Cc1ccc(C(=O)Nc2nc3ccccc3n2C)cc1`, 4.71 µM; in that of `Cn1c(NC(=O)c2cccnc2)nc2ccccc21`, 5.75 µM.
Still for that read-out and setting: the value for `Cn1c(NC(=O)c2cccc(Cl)c2)nc2ccccc21` was 5.55 µM; that for `Cn1c(NC(=O)c2ccccc2)nc2ncccc21` was 2.23 µM; that for `Cn1c(NC(=O)Cc2ccccc2)nc2ccccc21` was 3.85 µM.
On to `Cn1c(NC(=O)c2ccccc2)nc2c3ncccc3ccc21`, for which the AC90 is 1.18 µM.
On to `Cc1cc(C(=O)Nc2nc3ccccc3n2C)c(C)o1`, for which the AC90 is 9.93 µM.
The same measure, in the same setting: the value for `Cn1c(NC(=O)c2ccccc2)nc2cc(C(F)(F)F)ccc21` was 6.01 µM.
For the compound `COc1ccc(C(=O)Nc2nc3ccccc3n2C)cc1`, the AC90 was 3.71 µM.
Consider `COCCn1c(NC(=O)c2ccccc2)nc2ccccc21`, for which the AC90 was 2.23 µM.
On the same count and under the same terms, the value for `COc1ccccc1C(=O)Nc1nc2ccccc2n1C` was 5.86 µM; that for `Cn1c(NC(=O)c2ccccc2Cl)nc2ccccc21` was 4.64 µM.
The same measure, in the same setting: in the case of `COc1ccc2c(c1)nc(NC(=O)c1ccccc1)n2C` it was 4.26 µM; in that of `Cn1c(NC(=O)c2ccccc2)nc2ccccc21`, 4.27 µM and 4.2 µM; in that of `Cn1c(NC(=O)c2cccc(OC(F)F)c2)nc2ccccc21`, 22.3 µM.
Same read-out and setting: in the case of `Cn1c(NC(=O)c2ccccn2)nc2ccccc21` it was 5.17 µM.
Consider `O=C(Nc1nc2ccccc2n1C1CCCCC1)c1ccccc1`, for which the AC90 was 8.07 µM.
Same read-out and setting: in the case of `CCN(CC)CCn1c(NC(=O)c2ccccc2)nc2ccccc21` it was 7.31 µM.
Turning to `Cn1c(NC(=O)c2ccc3ccccc3c2)nc2ccccc21`, the AC90 was 6.5 µM.
For `Cn1c(NC(=O)c2cccs2)nc2ccccc21`, the AC90 is 4.16 µM and 1.65 µM.
The same measure, in the same setting: in the case of `Cn1c(NC(=O)c2ccc(OC(F)(F)F)cc2)nc2ccccc21` it was 6.61 µM.
Still for that read-out and setting: the value for `COc1cccc(C(=O)Nc2nc3ccccc3n2C)c1` was 6.18 µM; that for `Cc1ccc2c(c1)nc(NC(=O)c1ccccc1)n2C` was 13.6 µM; that for `Cc1cccc(C(=O)Nc2nc3ccccc3n2C)c1` was 8.9 µM.
The same measure, in the same setting: in the case of `O=C(Nc1nc2ccccc2[nH]1)c1ccccc1` it was 12.3 µM; in that of `Cn1c(NC(=O)c2ccc(F)cc2)nc2ccccc21`, 5.03 µM; in that of `Cn1c(NC(=O)c2ccncc2)nc2ccccc21`, 15 µM.
On to `Cn1c(NC(=O)c2ccccc2)nc2c3ccncc3ccc21`, for which the AC90 was 6.92 µM.
The same measure, in the same setting: the value for `Cn1c(NC(=O)c2cccc(F)c2)nc2ccccc21` was 7.51 µM; that for `Cn1c(NC(=O)c2cccc3ccccc23)nc2ccccc21` was 2.81 µM.
Still for that read-out and setting: in the case of `Cn1c(NC(=O)c2ccccc2)nc2c3cccnc3ccc21` it was 12 µM.
As to `Cn1c(NC(=O)c2ccccc2NC(=O)c2ccccc2)nc2ccccc21`, the AC90 was 5.02 µM.
For the compound `Cn1c(NC(=O)c2ccc(Cl)cc2)nc2ccccc21`, the AC90 was 12.3 µM.
On the same count and under the same terms, in the case of `CCCCn1c(NC(=O)c2ccccc2)nc2ccccc21` it was 7.88 µM.

The assay is the same for the next values; noted with them: at 26 µM (top of the series).
Turning to `Cn1c(N)nc2ccccc21`, the activity change, negative = inhibition is 3% (inactive).
Same read-out and setting: in the case of `Cn1c(NC(=O)c2cccc(C(F)(F)F)c2)nc2ccccc21` it was -84% (inactive); in that of `Cn1c(NC(=O)c2ccccc2)nc2ccc(C#N)cc21`, -66% (inactive); in that of `O=C(Nc1nc2ccccc2n1CCN1CCOCC1)c1ccccc1`, -51% (inactive).
On to `CCn1c(NC(=O)c2cnn(Cc3ccccc3)c2)nc2ccccc21`, for which the activity change, negative = inhibition is -74% (inactive).
Same read-out and setting: in the case of `Cn1c(NC(=O)c2ccccc2)nc2cccnc21` it was -100% (inactive).
